We go through nine compounds from patent USRE42274E1, “Cyclic peptide CXCR4 antagonists” (Eli Lilly and Company, priority 2007, dated 2011).

pIC50, pKi: −log10 of the molar value. Numbered stars: 1 amine (or outer) side, 2 acyl side, 3 side chain; on linkers, the order of the positions; unused ones are H or OH. Bridge positions count the residues as written; N and C are the ends. Square brackets hold non-standard residues; d marks the D form. Peptide text beside a SMILES is read from it. * marks the point of attachment. Lys(iPr-d6) = deuterated Lys(iPr), [2H]C([2H])([2H])C(NCCCC[C@H](N[*:1])C(=O)[*:2])C([2H])([2H])[2H]; 2Nal = N[C@@H](Cc1ccc2ccccc2c1)C(=O)O; Lys(iPr) = CC(C)NCCCC[C@H](N)C(=O)O; Lys(Me2) = CN(C)CCCC[C@H](N)C(=O)O; Dap = NC[C@H](N)C(=O)O; Bz = O=C(c1ccccc1)*

Series [1] concerns the target T1, CXCR4 (Homo sapiens, UniProt P61073). In words: Human CXCR4/125I-SDF-1α binding inhibition assay. Also noted: human leukemia CCRF-CEM cells (ATCC CCL 119) expressing endogenous CXCR4 are employed; endogenous in cells; host or cells: CCRF-CEM (ATCC CCL 119), whole cells. The note with it: for pKi: CCRF-CEM cells expressing endogenous CXCR4, Ki calculated from IC50. As for the experimental part: “Ki” values are calculated using IC50 values determined in the CXCR4/^125I-SDF-1α binding assay described below by employing equation 7.22 of Enzymes, A Practical Introduction to Structure, Mechanism, and Data Analysis, Robert A. Copeland, Wiley-VCH, New York, 1996, page 207.
Human CXCR4/^125I-SDF-1α Binding Inhibition Assay
SDF-1 binding to CXCR4 is the first step in activating the CXCR4 intracellular signalling pathway. To determine if a compound can block the interaction of SDF-1 and CXCR4, human leukemia CCRF-CEM cells (ATCC CCL 119) expressing endogenous CXCR4 are employed in an ^125I-labeled SDF-1α binding assay. The assay is performed in a 96-well U-bottom, non-treated polystyrene plate (Corning Incorporated, Costar, No. 3632). The binding assay buffer is prepared with RPMI 1640 medium (Gibco, Grand Island, N.Y.) containing 10 mM HEPES, pH 7.5, and 0.2% BSA. Briefly, 200 μL reaction mixtures containing 300 pM SDF ligand (60 pM ^125I-SDF-1α (Perkin Elmer) and 240 pM cold SDF-1α (R&D Systems), different concentrations of the test compound in assay buffer, 100,000 human CCRF-CEM cells, and 0.5 mg SPA beads (Wheatgerm agglutinin beads; Amersham) are incubated at room temperature for 2 hr. Plates are then counted in a 1450 Microbeta Liquid Scintillation and Luminescence Counter (Wallac) in SPA mode. CXCR4 antagonists decrease the bound radioactivity in this assay in a dose-dependent manner. The inhibitory potency (K1 or IC50) of a test compound is calculated using GraphPad Prism software, based on the dose-dependent decrease of bound radioactivity.

The subject of series [2] is neutrophils and white blood cells in peripheral blood. In words: Compound-induced white blood cell and neutrophil mobilization in C57BL/6 mice. Particulars: 5 mg/kg. The format is in vivo, mouse. From the text:
Compound-Induced White Blood Cell and Neutrophil Mobilization in C57BL/6 Mice
Stem cells within the bone marrow actively maintain continuous production of all mature blood cell lineages throughout life. Bone marrow is the primary site for white blood cell (WBC)/neutrophil production and release into the circulation. The CXCR4/SDF-1 axis appears to be critical for the retention and release of WBCs, neutrophils, and hematopoietic progenitor cells in the bone marrow, and interruption of CXCR4/SDF-1 interaction in bone marrow leads to an increase of these cells in peripheral blood. A short-term mouse WBC/neutrophil mobilization model can be used to determine the in vivo target-modulating activity of a test compound. Briefly, pathogen-free 5-6 week old female C57BL/6 mice (Taconic) are housed for at least one week prior to assay. Animals are allowed continuous access to sterilized rodent chow and acidified water. Groups of 5 mice are injected subcutaneously with test compounds in saline, or with saline control, and then sacrificed by CO2 asphyxiation and cervical dislocation at various time points post compound administration. Peripheral blood is collected by cardiac puncture using EDTA-coated syringes and tubes. […] Total WBCs, neutrophils, and lymphocytes in the peripheral blood are recorded. […]

Series [3] addresses T1, CXCR4. In words: Chemotaxis assay, SDF-1α-induced migration of U937 cells. The format is cell-based. On the set-up: endogenous in cells. The note with it: SDF-1α 10 ng/mL. An excerpt: CXCR4/SDF-1 interaction regulates migration (chemotaxis) of cells bearing CXCR4 on their surface. To determine the antagonist and cellular activities of a test compound, a chemotaxis assay using human histiocytic lymphoma U937 cells (ATCC CRL 1593) that express endogenous CXCR4 are employed. Briefly, U937 cells, grown in DMEM medium (Gibco, Grand Island, N.Y.) containing 10% FBS, 1% MEM sodium pyruvate (Gibco), 1% MEM nonessential amino acids (Gibco), and 1% GlutaMAX 1 (Gibco), are harvested and washed once with chemotaxis assay buffer prepared with 1×RPMI medium (Gibco) containing 10 mM HEPES, pH 7.5, and 0.3% BSA. After washing, cells are resuspended in assay buffer at a concentration of 5×10^6 cells/mL. The assay is performed in a 96-well ChemoTx plate (NeuroProbe) according to the manufacturer's directions. […] The plate is then incubated for 60 min at 37° C., and the migrated cells are detected by measuring the absorbance at 492 nm with a Tecan Spectrafluor Plus Microplate Reader (Salzburg, Austria). CXCR4 antagonists inhibit cell migration, reducing the absorbance reading. The inhibitory potency (IC50) of a test compound in this assay is calculated using GraphPad Prism software, based on the dose-dependent decrease of absorbance at 492 nm.

The subject of series [4] is human non-Hodgkin's lymphoma Namalwa cells. The series is described as follows: Anti-tumor activity in a SCID/Namalwa xenograft model. Particulars: 1 mg/kg BID, subcutaneous. The format is in vivo, mouse. From the text:
Anti-Tumor Activity in a SCID/Namalwa Xenograft Model
SDF-1/CXCR4 interaction appears to play an important role in multiple stages of tumorigenesis, including tumor growth, invasion, angiogenesis, and metastasis. To evaluate in vivo anti-tumor activity of a test compound, a tumor xenograft model using NOD/SCID mice (Jackson Laboratories) and human non-Hodgkin's lymphoma Namalwa cells (ATCC CRL 1432) are employed. Briefly, 200,000 Namalwa cells mixed with matrigel (1:1) are implanted subcutaneously into the rear flank of the animals. The implanted tumor cells grow as solid tumors, the dimensions of which can be continuously monitored and measured using a caliper. To determine the in vivo efficacy of a test compound in this model, one can treat animals (10/group) with different doses of test compounds dissolved in saline or PBS, beginning 48 hours post tumor cell implantation. Compounds are dosed subcutaneously, and tumor volume and body weight are determined every 2 or 3 days. Studies generally last 3-4 weeks, depending on tumor growth. The anti-tumor growth activity of a test compound is determined by the percent reduction in tumor volume in treatment groups compared to tumor volume in control groups treated with vehicle alone.

The nature of series [5]: Bioavailability in rats. The note with it: rat, in vivo, sc, subcutaneous. As for the experimental part:
Pharmacologic properties such as compound bioavailability, in vivo metabolic stability, and pharmacokinetic/pharmacodynamic properties can be determined by methods well known in the art of drug development. […] For example, in mice, the half-life (T½) of the compound of Example 58 is about 3 hours. With respect to pharmacodynamic properties, preferred compounds induce prolonged neutrophil and white blood cell mobilization in mice. For example, the compound of Example 25 induces a significant increase of neutrophils and white blood cells in peripheral blood for at least 6 hours after single dose subcutaneous administration at 5 mg/kg in mice.

T1 sequence (P61073 whole entry): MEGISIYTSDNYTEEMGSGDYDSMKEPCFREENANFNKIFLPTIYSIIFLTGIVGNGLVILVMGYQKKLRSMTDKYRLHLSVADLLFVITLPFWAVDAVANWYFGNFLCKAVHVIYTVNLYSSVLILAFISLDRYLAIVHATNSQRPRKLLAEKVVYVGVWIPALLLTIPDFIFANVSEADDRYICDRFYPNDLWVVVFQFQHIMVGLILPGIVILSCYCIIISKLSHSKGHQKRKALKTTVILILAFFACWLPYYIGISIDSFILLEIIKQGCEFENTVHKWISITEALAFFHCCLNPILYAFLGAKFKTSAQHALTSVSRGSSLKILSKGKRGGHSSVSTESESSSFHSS

The term pKi denotes −log10 of the Ki, conventionally taken in molar units. On to `CC(C)NCCCC[C@@H]1NC(=O)[C@H](Cc2ccc(O)cc2)NC(=O)CNC(=O)CC[C@H](C(=O)N[C@@H](CCCCNC(C)C)C(=O)NCC(=O)N[C@@H](Cc2ccc3ccccc3c2)C(N)=O)NC(=O)CNC(=O)[C@H](Cc2ccc3ccccc3c2)NC(=O)[C@@H](CCCNC(=N)N)NC1=O` [Example 75, cyclo[Gly-Tyr-Lys(iPr)-DArg-2Nal-Gly-DGlu]-Lys (iPr)-Gly-2Nal-NH2] (GY[Lys(iPr)][dR][2Nal]G[dE][Lys(iPr)]G[2Nal]-NH2; lactam N-7), for which the pKi in series [1] was 10.02.

Regarding “cyclo[Gly-Tyr-Lys(iPr)-DArg-2Nal-Gly-DGlu]-Arg-NH2 (GY[Lys(iPr)][dR][2Nal]G[dE]R-NH2; lactam N-7) [Example 25]”, in series [2] (single dose subcutaneous, mice), the “duration of significant increase of neutrophils and white blood cells in peripheral blood” value is given as “at least 6 hours”.

Regarding “cyclo[Phe-Tyr-Lys(iPr-d6)-DArg-2Nal-Gly-DGlu]-Lys(iPr-d6)-NH2 (FY[Lys(iPr-d6)][dR][2Nal]G[dE][Lys(iPr-d6)]-NH2; lactam N-7) [Example 89]”, the “target receptor affinity compared to the non-labeled counterpart” value in series [1] (deuterium-labeled peptide vs non-labeled counterpart) is listed as “identical target receptor affinity”.

On to `CC(=O)N[C@H]1CNC(=O)CC[C@@H](C(=O)N[C@@H](CCCNC(=N)N)C(N)=O)NC(=O)CNC(=O)[C@H](Cc2ccc3ccccc3c2)NC(=O)[C@@H](CCCNC(=N)N)NC(=O)[C@H](CCCNC(=N)N)NC(=O)[C@H](Cc2ccc(O)cc2)NC1=O` [Example 1, Ac-cyclo[Dap-Tyr-Arg-DArg-2Nal-Gly-Glu]-Arg-NH2] (Ac-[Dap]YR[dR][2Nal]GER-NH2; lactam 1-7), for which the pKi in series [1] is 8.46.

For “cyclo[Gly-Tyr-Lys(iPr)-DArg-2Nal-Gly-Glu]-Arg-NH2 (GY[Lys(iPr)][dR][2Nal]GER-NH2; lactam N-7) [Example 39]”, the “average neutrophil ratio (neutrophil increase in treatment group vs. saline control group)” value in series [2] (3 hours after compound administration, subcutaneous) came out at 4.6.

In general, pIC50 refers to −log10 of the IC50, conventionally taken in molar units. High values mean a small IC50, low ones a large IC50. In turn, `CN(C)CCCC[C@@H]1NC(=O)[C@H](Cc2ccc(O)cc2)NC(=O)[C@@H](NC(=O)c2ccccc2)CC(=O)NC[C@@H](C(=O)N[C@@H](CCCNC(=N)N)C(N)=O)NC(=O)CNC(=O)[C@H](Cc2ccc3ccccc3c2)NC(=O)[C@@H](CCCNC(=N)N)NC1=O` [Example 19, Bz-cyclo[Asp-Tyr-Lys(Me2)-DArg-2Nal-Gly-Dap]-Arg-NH2] (Bz-DY[Lys(Me2)][dR][2Nal]G[Dap]R-NH2; lactam 1-7) showed a pIC50 in series [3] of 8.69.

Compound `CC(C)NCCCC[C@@H]1NC(=O)[C@H](Cc2ccc(O)cc2)NC(=O)[C@@H](C)NC(=O)CC[C@H](C(N)=O)NC(=O)CNC(=O)[C@H](Cc2ccc3ccccc3c2)NC(=O)[C@@H](CCCNC(=N)N)NC1=O` [Example 50, cyclo[DAla-Tyr-Lys(iPr)-DArg-2Nal-Gly-DGlu]-NH2] ([dA]Y[Lys(iPr)][dR][2Nal]G[dE]-NH2; lactam N-7) gave a pIC50 in series [3] of 9.77. The pKi in series [1] was 9.55.

As for “cyclo[Gly-Tyr-Lys(iPr)-DArg-2Nal-Gly-DGlu]-NH2 (GY[Lys(iPr)][dR][2Nal]G[dE]-NH2; lactam N-7; SMILES CC(C)NCCCC[C@@H]1NC(=O)[C@H](Cc2ccc(O)cc2)NC(=O)CNC(=O)CC[C@H](C(N)=O)NC(=O)CNC(=O)[C@H](Cc2ccc3ccccc3c2)NC(=O)[C@@H](CCCNC(=N)N)NC1=O) [Example 26]”, the tumor growth inhibition result in series [4] is on record as “significantly inhibit tumor growth”.

The term bioavailability denotes the share of a dose that reaches the circulation, judged against a reference dose that is usually intravenous. In series [5], `CCNC(=O)[C@H](CCCNC(=N)N)NC(=O)[C@H]1CCC(=O)NCC(=O)N[C@@H](Cc2ccc(O)cc2)C(=O)N[C@@H](CCCCNC(C)C)C(=O)N[C@H](CCCNC(=N)N)C(=O)N[C@@H](Cc2ccc3ccccc3c2)C(=O)NCC(=O)N1` [Example 44, cyclo[Gly-Tyr-Lys(iPr)-DArg-2Nal-Gly-DGlu]-Arg-NHEt] (GY[Lys(iPr)][dR][2Nal]G[dE]R-NHEt; lactam N-7) returned a bioavailability of around 100%.
